Numbers after ± are expanded uncertainties.
Assays:
[1] = molar heat capacity at constant pressure; settings: 101.33 kPa, Liquid, Small sample (50 mg) DSC
[2] = for surface tension liquid-gas: Drop volume; for electrical conductivity / viscosity / speed of sound / mass density: 101.33 kPa, Liquid; for electrical conductivity: CRISON model GLP31; for viscosity: Capillary tube (Ostwald / Ubbelohde) method; for speed of sound: Sing-around technique in a fixed-path interferometer; for mass density: Vibrating tube method
[3] = refractive index (Na D-line) (dimensionless); settings: 101.33 kPa, Liquid, Standard Abbe refractometry

CCC[n+]1ccccc1.F[B-](F)(F)F [1-propylpyridinium tetrafluoroborate]
Settings	electrical conductivity, [2] [S/m]	mass density, [2] [kg/m3]	molar heat capacity at constant pressure, [1] [J/K/mol]	refractive index, [3]	speed of sound, [2] [m/s]	surface tension liquid-gas, [2] [mN/m]	viscosity, [2] [mPa·s]
278.15 K	0.102 ± 0.0036	1267.63 ± 1.4	352 ± 8	–	1691.9 ± 2.9	52.55 ± 0.57	461.4 ± 18
280.65 K	0.123 ± 0.0041	1265.78 ± 1.4	354 ± 8	–	1685.4 ± 2.9	52.35 ± 0.57	379.1 ± 14
283.15 K	0.151 ± 0.0049	1263.92 ± 1.4	355 ± 8	1.44855 ± 0.00051	1678.9 ± 2.9	52.16 ± 0.57	314.2 ± 10
285.65 K	0.181 ± 0.0054	1262.06 ± 1.4	356 ± 8	1.44789 ± 0.00051	1672.5 ± 2.9	51.94 ± 0.56	262.5 ± 8.1
288.15 K	0.215 ± 0.006	1260.19 ± 1.4	357 ± 8	1.44723 ± 0.00051	1666.2 ± 2.9	51.72 ± 0.56	220.8 ± 6.2
290.65 K	0.252 ± 0.007	1258.42 ± 1.4	359 ± 8	1.44655 ± 0.00051	1660 ± 2.9	51.53 ± 0.56	186.9 ± 4.7
293.15 K	0.302 ± 0.009	1256.64 ± 1.4	361 ± 8	1.44588 ± 0.00051	1653.9 ± 2.9	51.29 ± 0.56	160 ± 3.7
295.65 K	0.352 ± 0.009	1254.86 ± 1.4	362 ± 8	1.44522 ± 0.00051	1647.8 ± 2.9	51.15 ± 0.56	137.7 ± 2.9
298.15 K	0.401 ± 0.009	1253.08 ± 1.4	363 ± 8	1.44455 ± 0.00051	1641.7 ± 2.9	50.97 ± 0.55	119.5 ± 2.2
300.65 K	0.456 ± 0.01	1251.3 ± 1.4	365 ± 8	1.44389 ± 0.00051	1635.7 ± 2.9	50.73 ± 0.55	103.8 ± 1.8
303.15 K	0.516 ± 0.011	1249.52 ± 1.4	366 ± 8	1.44322 ± 0.00051	1629.8 ± 2.9	50.51 ± 0.55	90.75 ± 1.4
305.65 K	0.581 ± 0.012	1247.73 ± 1.4	367 ± 8	1.44256 ± 0.00051	1623.8 ± 2.9	50.32 ± 0.55	79.75 ± 1.1
308.15 K	0.649 ± 0.013	1245.95 ± 1.4	369 ± 8	1.4419 ± 0.00051	1618 ± 2.9	50.12 ± 0.54	70.61 ± 0.89
310.65 K	0.722 ± 0.014	1244.18 ± 1.4	370 ± 8	1.44123 ± 0.00051	1612.1 ± 2.9	49.93 ± 0.54	62.81 ± 0.74
313.15 K	0.799 ± 0.015	1242.4 ± 1.4	372 ± 8	1.44057 ± 0.00051	1606.3 ± 2.9	49.79 ± 0.54	56.02 ± 0.62
315.65 K	0.881 ± 0.016	1240.63 ± 1.4	373 ± 8	1.4399 ± 0.00051	1600.5 ± 2.9	49.54 ± 0.54	50.22 ± 0.55
318.15 K	0.965 ± 0.018	1238.86 ± 1.4	374 ± 8	1.43924 ± 0.00051	1594.8 ± 2.9	49.41 ± 0.54	45.19 ± 0.52
320.65 K	1.07 ± 0.019	1237.1 ± 1.4	376 ± 8	1.43859 ± 0.00051	1589 ± 2.9	49.21 ± 0.54	40.86 ± 0.47
323.15 K	1.15 ± 0.019	1235.33 ± 1.4	377 ± 8	1.43792 ± 0.00051	1583.3 ± 2.9	49.03 ± 0.53	36.99 ± 0.42
325.65 K	1.26 ± 0.021	1233.58 ± 1.4	378 ± 8	1.43726 ± 0.00051	1577.6 ± 2.9	48.82 ± 0.53	33.84 ± 0.39
328.15 K	1.37 ± 0.023	1231.82 ± 1.4	380 ± 8	1.43659 ± 0.00051	1572 ± 2.9	48.7 ± 0.53	30.72 ± 0.35
330.65 K	1.48 ± 0.024	1230.07 ± 1.3	381 ± 8	1.43593 ± 0.00051	1566.3 ± 2.9	48.46 ± 0.53	28.09 ± 0.32
333.15 K	1.6 ± 0.026	1228.32 ± 1.3	383 ± 8	1.43528 ± 0.00051	1560.7 ± 2.9	48.3 ± 0.53	25.81 ± 0.29
335.65 K	1.73 ± 0.027	1226.57 ± 1.3	384 ± 8	1.43463 ± 0.00051	1555.1 ± 2.9	48.1 ± 0.52	23.78 ± 0.27
338.15 K	1.87 ± 0.029	1224.83 ± 1.3	385 ± 8	1.43398 ± 0.00051	1549.5 ± 2.9	47.86 ± 0.52	21.97 ± 0.25

From the NIST ThermoML archive (doi:10.1016/j.jct.2011.08.015)
